A short description of data set [1]: Drug level in baboon plasma assessed as unmetabolized fractions after 60 mins. Type of data set: ADME, cell-free. As to conditions: papio hamadryas, read-out: Activity.
A short description of data set [2]: Drug level in baboon plasma assessed as unmetabolized fractions after 30 mins. Type of data set: ADME, cell-free. As to conditions: papio hamadryas, read-out: Activity.
A short description of data set [3]: Ratio of drug uptake in skull to hippocampus in baboon at 1.2 mCi after 115 mins. The conditions noted are these: papio hamadryas, in vivo. Type of data set: ADME, tissue-based.
Data set [4] in a line: Ratio of drug uptake in skull to cerebellum in baboon at 1.2 mCi after 115 mins. The conditions noted are these: papio hamadryas, in vivo. The data set is classed as ADME, tissue-based.
A short description of data set [5]: Ratio of drug uptake in skeleton to brain in Sprague-Dawley rat at 0.2 mCi, iv after 112 mins. Type of data set: ADME, organism-based. As to conditions: in vivo.
Data set [6] is described as follows: Ratio of drug uptake in skull to cingulate in baboon at 1.2 mCi after 115 mins. The conditions noted are these: papio hamadryas, in vivo. Type of data set: ADME.
Data set [7] in a line: Ratio of drug uptake in skeleton to heart in Sprague-Dawley rat at 0.2 mCi, iv after 112 mins. The data set is classed as ADME, organism-based. The conditions noted are these: in vivo.
Data set [8] can be described thus: Drug level in baboon plasma assessed as unmetabolized fractions after 12 mins. As to conditions: papio hamadryas, read-out: Activity. Type of data set: ADME, cell-free.
A short description of data set [9]: Ratio of drug uptake in skull to putamen in baboon at 1.2 mCi after 115 mins. Type of data set: ADME. The conditions noted are these: papio hamadryas, in vivo.
Data set [10] can be described thus: Ratio of drug uptake in skeleton to cerebellum in Sprague-Dawley rat at 0.2 mCi, iv after 112 mins. Type of data set: ADME, organism-based. The conditions noted are these: in vivo.
A short description of data set [11]: Ratio of drug uptake in skull to caudate in baboon at 1.2 mCi after 115 mins. The data set is classed as ADME. As to conditions: papio hamadryas, in vivo.
Data set [12] in a line: Ratio of drug uptake in skull to thalamus in baboon at 1.2 mCi after 115 mins. The data set is classed as ADME, tissue-based. The conditions noted are these: papio hamadryas, in vivo.
Data set [13] is described as follows: Drug level in baboon plasma assessed as unmetabolized fractions after 4 mins. The conditions noted are these: papio hamadryas, read-out: Activity. The data set is classed as ADME, cell-free.
A short description of data set [14]: Drug level in baboon plasma assessed as unmetabolized fractions after 2 mins. Type of data set: ADME, cell-free. As to conditions: papio hamadryas, read-out: Activity.

SMILES strings stand for the structures.

Turning to `Cc1ccc(-c2cc(C(F)(F)[18F])nn2-c2ccc(S(N)(=O)=O)cc2)cc1`, the remaining at 1 h in data set [1] is 17%. The remaining at 0.5 h in data set [2] is 30.2%. For the same compound, the Ratio in data set [3] is recorded as 1.41; in [4] it was 1.2; in data set [5], 0.45; in data set [6], 1.43; in data set [7], 0.7; in [9], 1.46. Moreover, the Ratio in data set [10] was found to be 0.5; in data set [11] it was 1.48; in [12], 1.6. The remaining at 0.2 h in data set [8] came to 47.5%. In [13], the remaining at 4 min was determined as 84.9%. Further, the remaining at 2 min in [14] came to 93.2%.

Source of the values: ChEMBL document CHEMBL1146341, “Synthesis and in vivo evaluation of [18F]-4-[5-(4-methylphenyl)-3-(trifluoromethyl)-1H-pyrazol-1-yl]benzenesulfonamide as a PET imaging probe for COX-2 expression” (Bioorg Med Chem, 2007).
